Read-outs that look alike come from different tables or passages of the source.
Tests used:
[1] = tested on: HEK-293 cells; assay: MTT cytotoxicity assay, normal cell line HEK-293; type: cell-based
Description: A cell suspension was diluted by complete medium to a concentration of 5 × 10^4 cell/mL. Using a micropipette, we pipetted 100 μL aliquots of the cell suspension into each well of 96-well plate (≈5000 cells/well). The 96-well plate was incubated at 37 °C for 24 h to allow cell attachment. After 24 h, cells were treated with 100 µL of growth medium containing […] of the newly synthesized compounds in triplicate. Cells were washed with phosphate-buffered saline (PBS), and fresh relevant medium containing 20 μL MTT in PBS (0.5 mg/mL) was added to the test wells. The plate was further incubated in a CO2 incubator at 37 °C for 4 h, and then MTT assay analysis was performed. The MTT assay technique is based on the reduction of the tetrazolium salt MTT to insoluble purple formazan by metabolically active cells, making their activities quantifiable by spectrophotometry. Accordingly, the formed formazan crystals were dissolved in 120 μL DMSO for each well. Cell viability was determined by measuring the absorbance of each well at 570 nm (and at a reference wavelength of 630 nm) using an ELISA plate reader.

[2] = tested on: Hep-G2 cells; assay: MTT cytotoxicity assay, Hep-G2; type: cell-based, human; conditions: read-out: IC50 Values, Hep-G2 Cell Line
Description: (§1) The cytotoxic activities of the synthesized ligands and metal complexes against the breast cancer cell line MDA-MB231, the hepatic cellular (Hep-G2), and normal cell line (HEK-293) were assessed by MTT assay. A cell suspension was diluted by complete medium to a concentration of 5 × 10^4 cell/mL. Using a micropipette, we pipetted 100 μL aliquots of the cell suspension into each well of 96-well plate (≈5000 cells/well). The 96-well plate was incubated at 37 °C for 24 h to allow cell attachment. After 24 h, cells were treated with 100 µL of growth medium containing […] of the newly synthesized compounds in triplicate. Cells were washed with phosphate-buffered saline (PBS), and fresh relevant medium containing 20 μL MTT in PBS (0.5 mg/mL) was added to the test wells. […] The MTT assay technique is based on the reduction of the tetrazolium salt MTT to insoluble purple formazan by metabolically active cells, making their activities quantifiable by spectrophotometry. […] Cell viability was determined by measuring the absorbance of each well at 570 nm (and at a reference wavelength of 630 nm) using an ELISA plate reader. […] IC50 values were calculated using Graph Pad Prism version 6.01, 2012 (GraphPad software, San Diego, CA, USA), by plotting the log concentration versus corresponding viability (%) to generate dose–response curves. […]

[3] = tested on: MDA-MB231 cells; assay: MTT cytotoxicity assay, MDA-MB231; type: cell-based, human; conditions: read-out: IC50 Values, MDA-MB231 Cell Line
Description: as §1

Row | Structure (SMILES) | IC50 ([1]; Homo sapiens, HEK293, read-out: IC50 Values, HEK-293 Cell Lines) | IC50 ([2]; Homo sapiens, HepG2, Hep-G2 liver carcinoma cells) | melting point | IC50 ([3]; Homo sapiens, MDA-MB-231, MDA-MB231 breast carcinoma cells) | IC50 ([1]; read-out: IC50 Values, HEK-293 Cell Lines) | IC50 ([2]; Hep-G2 liver carcinoma cells) | IC50 ([3]; MDA-MB231 breast carcinoma cells)
1 | Oc1ccccc1C=NCCN=Cc1ccccc1O [S, 2,2′-{1,2-ethanediylbis[nitrilo(E)methylylidene]}diphenol] | 93.06 ± 0.04 µM | 1.1 ± 0.1 µM | 127 °C | 27.54 ± 0.08 µM |  |  | 
2 | N.N.[Cl][Pt][Cl] [Cisplatin, reference compound] |  |  |  |  | 94.1 ± 0.05 µM | 1.55 ± 0.06 µM | 1.87 ± 0.09 µM
